Consider 15 compounds from patent publication US20250129103A1, “METHODS FOR TREATMENT OF CANCER” (Frontier Medicines Corporation, priority 2022, published 2025).

Converted amounts (≈) assume the structure as drawn. A value given as a limit tells only on which side of the number the result lay.

Data set [1] has as its target KRAS G12C (GMPPNP-loaded) and cRAF (Ras-binding domain) interaction (Homo sapiens (Human), UniProt P01116, C118S/C51S/C80L/G12C). The experiment in a line: Inhibition of KRAS G12C and cRAF binding (AlphaScreen). Particulars: KRAS G12C loaded with GMPPNP, cRaf RBD, 2 hours preincubation; read-out: Raf-1 RBD K-Ras IC50. A digest of the protocol: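 AlphaScreen readout (680 nm excitation, 570 nm emission) of RBD binding after a 60-90 min bead step at room temperature. This step follows 2 h compound exposure of GMPPNP-preloaded KRAS G12C in Hepes pH 7.4 buffer with MgCl2 and 10 μM GMPPNP.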

The target of data set [2] is KRAS G12C (GMPPNP-loaded) and PI3Ka (Ras-binding domain) interaction (Homo sapiens (Human), UniProt P01116, C118S/C51S/C80L/G12C). The experiment in a line: Inhibition of KRAS G12C and PI3Ka binding (AlphaScreen). Particulars: KRAS G12C loaded with GMPPNP, PI3Ka RBD, 2 hours preincubation; read-out: PI3K RBD K-Ras IC50. Here is the method: The AlphaScreen technology was used to determine IC50S for compound inhibition of KRAS G12C (present as the Cys-light (C51S, C80L and C118S), truncated version comprising amino acids 1-169) and PI3Ka interaction. Compounds were diluted in 100% DMSO and each compound concentration was spotted at 200 nl/well onto low volume, white 384 well plates. The KRAS G12C contained a biotin-AviTag and the PI3Ka, as Ras-binding domain (amino acids 157-300, RBD), was His-tagged. KRAS G12C was preloaded with the GTP analogue Guanosine 5′-[β,γ-imido]triphosphate (GMPPNP). The KRAS G12C was diluted in 25 mM Hepes, pH 7.4, 150 mM NaCl, 5 mM MgCl2, 0.01% TritonX-100 and 10 μM GMPPNP and added at 10 ul/well to compound-spotted plates resulting in a DMSO concentration of 2%. Plates were incubated for 2 hours. A mixture of RBD and the AlphaScreen streptavidin donor and nickel chelate acceptor beads diluted in 25 mM Hepes, pH 7.4, 150 mM NaCl, 5 mM MgCl2, 0.01% TritonX-100 and 2% DMSO was then added at 10 ul/well and incubated for 60-90 minutes before the samples were read for emission at 570 nm after excitation of the donor beads at 680 nm. All incubations were performed at room temperature. The final top compound concentration was 50 μM with 1:3 titrations for 10-point dose response curves. Final assay conditions were 1.5 nM KRAS G12C, 100 nM RBD, 1.25 ug/ml of AlphaScreen donor beads and 10 μg/ml AlphaLISA acceptor beads. IC50s were determined using nonlinear regression fit of [inhibitor] vs. response (4 parameters). […]

The nature of data set [3]: Determination of logD (1-octanol / phosphate buffer pH 7.4). It counts as physicochemical. As to conditions: for logD: 1-octanol/phosphate buffer, pH 7.4, pH 7.4, 1-octanol/phosphate buffer, read-out: Log D, pH 7.4. A digest of the protocol:
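Each phase analysed by LCMS after 1 h shaking at 800 rpm and centrifugation, room temperature. Phases were mutually saturated 1-octanol and 100 mM phosphate buffer at pH 7.4. LogD derived from the phase concentrations.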

A short description of data set [4]: Determination of kinetic solubility (pH 7.4). It counts as physicochemical. As to conditions: phosphate buffer, pH 7.4, aqueous buffer, kinetic from dmso stock, 50 mM phosphate buffer pH 7.4, read-out: Ksol, pH 7.4. In outline: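 Solubility taken from filtrate peak areas on a calibration curve (HPLC-UV, LC-MS/MS). Before filtration and centrifugation, compound was shaken for 2 h at room temperature in pH 7.4 50 mM phosphate buffer.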

In the case of “2-((S)-4-(7-(8-chloro-7-fluoronaphthalen-1-yl)-8-fluoro-2-(((2R,7aS)-2-fluorotetrahydro-1H-pyrrolizin-7a(5H)-yl)methoxy)pyrido[4,3-d]pyrimidin-4-yl)-1-((E)-4-((3aR,6aS)-tetrahydro-1H-furo[3,4-c]pyrrol-5(3H)-yl)but-2-enoyl)piperazin-2-yl)acetonitrile [Example 84]”, the IC50 in data set [1] and in data set [2] was below 10 nM in each case. Also, in data set [3] (pH 7.4, 1-octanol/phosphate buffer), the “Log D, pH 7.4” value worked out at 2.97.

Consider `Cc1cc(N)nc(C2Cc3nc(OC[C@@]45CCCN4C[C@H](F)C5)nc(N4CCN(C(=O)/C=C/C5CCN5C)[C@@H](CC#N)C4)c3CC2C)c1C(F)(F)F` (mixture of isomers) [Example 68, 2-((2S)-4-(7-(6-amino-4-methyl-3-(trifluoromethyl)pyridin-2-yl)-2-(((2R,7aS)-2-fluorohexahydro-1H-pyrrolizin-7a-yl)methoxy)-6-methyl-5,6,7,8-tetrahydroquinazolin-4-yl)-1-((E)-3-(1-methylazetidin-2-yl)acryloyl)piperazin-2-yl)acetonitrile], for which the IC50 in data set [1] and in data set [2] was below 10 nM each time. Moreover, the logD in data set [3] was determined as 3.09.

For `Cc1noc(/C=C/C(=O)N2CCN(c3nc(OC[C@@]45CCCN4C[C@H](F)C5)nc4c3CCN(c3cccc5cccc(Cl)c35)C4)C[C@@H]2CC#N)n1` [Compound 2, 2-((S)-4-(7-(8-chloronaphthalen-1-yl)-2-(((2R,7aS)-2-fluorohexahydro-1H-pyrrolizin-7a-yl)methoxy)-5,6,7,8-tetrahydropyrido[3,4-d]pyrimidin-4-yl)-1-((E)-3-(3-methyl-1,2,4-oxadiazol-5-yl)acryloyl)piperazin-2-yl)acetonitrile], the IC50 in data set [1] is 10 to 100 nM; in data set [2], below 10 nM. The logD in data set [3] came out at 4.42.

Consider `N#CC[C@H]1CN(c2nc(OC[C@@]34CCCN3C[C@H](F)C4)nc3c2CCN(c2cccc4cccc(Cl)c24)C3)CCN1C(=O)/C=C/c1nc(C(F)F)no1` [Compound 18], for which the IC50 in data set [1] and in data set [2] was below 10 nM each time. Besides, in data set [3], the logD is 4.78. Further, in data set [4], the solubility kinetic at 2 h stood at 0.01 µg/mL (≈ 0.0134 µM).

In the case of `N#CC[C@H]1CN(c2nc(OCC34CCCN3CCC4)nc3c2CCN(c2cccc4cccc(Cl)c24)C3)CCN1C(=O)/C=C/c1nc(C(F)F)no1` [Compound 19], the half-inhibitory concentration (IC50) in data set [1] and in data set [2] was below 10 nM each time. Further, the logD in data set [3] was 3.33. Also, the solubility kinetic at 2 h in data set [4] was found to be 24.4 µg/mL (≈ 33.5 µM).

For `N#CC[C@H]1CN(c2nc(OCC34CCCN3CCC4)nc3c2CCN(c2cccc4cccc(Cl)c24)C3)CCN1C(=O)/C=C/c1nc(C2CC2)no1` [Compound 23], the half-inhibitory concentration (IC50) in data set [1] and in data set [2] was 10 to 100 nM in each case. Moreover, the logD in data set [3] was 3.38. Also, the solubility kinetic at 2 h in data set [4] worked out at 12.5 µg/mL (≈ 17.3 µM).

Regarding `CCc1noc(/C=C/C(=O)N2CCN(c3nc(OCC45CCCN4CCC5)nc4c3CCN(c3cccc5cccc(Cl)c35)C4)C[C@@H]2CC#N)n1` [Compound 25], the results for the IC50 in data set [1] and in data set [2] were above 500 nM and at least 500 nM, respectively. The logD in data set [3] was determined as 4.9. Also, the solubility kinetic at 2 h in data set [4] is 0.01 µg/mL (≈ 0.0141 µM).

As to `N#CC[C@H]1CN(c2nc(OCC34CCCN3CCC4)nc3c2CCN(c2cccc4cccc(Cl)c24)C3)CCN1C(=O)/C=C/CN1CCOCC1` [Example 11, (S,E)-2-(4-(7-(8-chloronaphthalen-1-yl)-2-((hexahydro-1H-pyrrolizin-7a-yl)methoxy)-5,6,7,8-tetrahydropyrido[3,4-d]pyrimidin-4-yl)-1-(4-morpholinobut-2-enoyl)piperazin-2-yl)acetonitrile], the values for the IC50 in data set [1] and in data set [2] were below 10 nM and 10 to 100 nM, respectively.

Consider `CC(F)(F)c1noc(/C=C/C(=O)N2CCN(c3nc(OC[C@@]45CCCN4C[C@H](F)C5)nc4c3CCN(c3cccc5cccc(Cl)c35)C4)C[C@@H]2CC#N)n1` [Example 12, 2-((S)-4-(7-(8-chloronaphthalen-1-yl)-2-(((2R,7aS)-2-fluorohexahydro-1H-pyrrolizin-7a-yl)methoxy)-5,6,7,8-tetrahydropyrido[3,4-d]pyrimidin-4-yl)-1-((E)-3-(3-(1,1-difluoroethyl)-1,2,4-oxadiazol-5-yl)acryloyl)piperazin-2-yl)acetonitrile], for which the IC50 in data set [1] and in data set [2] was below 10 nM throughout.

As for `CC(F)(F)c1noc(/C=C/C(=O)N2CCN(c3nc(OCC45CCCN4CCC5)nc4c(F)c(-c5cccc6cccc(Cl)c56)ncc34)C[C@@H]2CC#N)n1` [Example 13, (S,E)-2-(4-(7-(8-chloronaphthalen-1-yl)-8-fluoro-2-((tetrahydro-1H-pyrrolizin-7a(5H)-yl)methoxy)pyrido[4,3-d]pyrimidin-4-yl)-1-(3-(3-(1,1-difluoroethyl)-1,2,4-oxadiazol-5-yl)acryloyl)piperazin-2-yl)acetonitrile], the IC50 in data set [1] and in data set [2] was 10 to 100 nM each time.

Consider `Cc1cc(/C=C/C(=O)N2CCN(c3nc(OC[C@@]45CCCN4C[C@H](F)C5)nc4c(F)c(-c5cccc6cccc(Cl)c56)ncc34)C[C@@H]2CC#N)nc(C)n1` [Example 69, 2-((S)-4-(7-(8-chloronaphthalen-1-yl)-8-fluoro-2-(((2R,7aS)-2-fluorotetrahydro-1H-pyrrolizin-7a(5H)-yl)methoxy)pyrido[4,3-d]pyrimidin-4-yl)-1-((E)-3-(2,6-dimethylpyrimidin-4-yl)acryloyl)piperazin-2-yl)acetonitrile], for which the IC50 in data set [1] and in data set [2] was below 10 nM each time.

In the case of `C[C@@H]1CN(C/C=C/C(=O)N2CCN(c3nc(OC[C@@]45CCCN4C[C@H](F)C5)nc4c(F)c(-c5cccc6ccc(F)c(Cl)c56)ncc34)C[C@@H]2CC#N)C[C@H](C)O1` [Example 73, 2-((S)-4-(7-(8-chloro-7-fluoronaphthalen-1-yl)-8-fluoro-2-(((2R,7aS)-2-fluorotetrahydro-1H-pyrrolizin-7a(5H)-yl)methoxy)pyrido[4,3-d]pyrimidin-4-yl)-1-((E)-4-((2S,6R)-2,6-dimethylmorpholino)but-2-enoyl)piperazin-2-yl)acetonitrile], the IC50 in data set [1] and in data set [2] was below 10 nM throughout.

Turning to `C[C@@H]1CN(C/C=C/C(=O)N2CCN(c3nc(OC[C@@]45CCCN4C[C@H](F)C5)nc4c(F)c(-c5cccc6ccc(F)c(Cl)c56)ncc34)C[C@@H]2CC#N)C[C@@H](C)O1` [Example 74, 2-((S)-4-(7-(8-chloro-7-fluoronaphthalen-1-yl)-8-fluoro-2-(((2R,7aS)-2-fluorotetrahydro-1H-pyrrolizin-7a(5H)-yl)methoxy)pyrido[4,3-d]pyrimidin-4-yl)-1-((E)-4-((2R,6R)-2,6-dimethylmorpholino)but-2-enoyl)piperazin-2-yl)acetonitrile], the 50% inhibitory concentration (IC50) in data set [1] and in data set [2] was below 10 nM in each case.

As for `C[C@H]1CN(C/C=C/C(=O)N2CCN(c3nc(OC[C@@]45CCCN4C[C@H](F)C5)nc4c(F)c(-c5cccc6ccc(F)c(Cl)c56)ncc34)C[C@@H]2CC#N)C[C@H](C)O1` [Example 75, 2-((S)-4-(7-(8-chloro-7-fluoronaphthalen-1-yl)-8-fluoro-2-(((2R,7aS)-2-fluorotetrahydro-1H-pyrrolizin-7a(5H)-yl)methoxy)pyrido[4,3-d]pyrimidin-4-yl)-1-((E)-4-((2S,6S)-2,6-dimethylmorpholino)but-2-enoyl)piperazin-2-yl)acetonitrile], the concentration for half-maximal inhibition (IC50) in data set [1] and in data set [2] was below 10 nM each time.

Consider `N#CC[C@H]1CN(c2nc(OC[C@@]34CCCN3C[C@H](F)C4)nc3c(F)c(-c4cccc5ccc(F)c(Cl)c45)ncc23)CCN1C(=O)/C=C/CN1C2COCC1C2` [Example 76, 2-((2S)-1-((E)-4-(3-oxa-6-azabicyclo[3.1.1]heptan-6-yl)but-2-enoyl)-4-(7-(8-chloro-7-fluoronaphthalen-1-yl)-8-fluoro-2-(((2R,7aS)-2-fluorotetrahydro-1H-pyrrolizin-7a(5H)-yl)methoxy)pyrido[4,3-d]pyrimidin-4-yl)piperazin-2-yl)acetonitrile], for which the IC50 in data set [1] and in data set [2] was below 10 nM throughout.
